Data: ChEMBL document CHEMBL1142603, “Manzamine B and E and ircinal A related alkaloids from an Indonesian Acanthostrongylophora sponge and their activity against infectious, tropical parasitic, and Alzheimer's diseases” (J Nat Prod, 2006)
Converted amounts (≈) assume the structure as drawn. The source made the active and inactive calls. The calls are words filed in the database; no cut-off is given here.

Experiments:
[1] = test system: Mycobacterium tuberculosis; assay: Antituberculosis activity against Mycobacterium tuberculosis H37Rv at 64 ug/mL after 24 hrs by alamar blue assay; type: functional, organism-based
Plasmodium falciparum [2] = assay: Antimalarial activity after 72 hrs against chloroquine-sensitive Plasmodium falciparum D6 in erythrocytes by LDH reporter assay; type: functional, organism-based; conditions: D6, 72 h
Plasmodium falciparum [3] = assay: Antimalarial activity after 72 hrs against chloroquine-resistant Plasmodium falciparum W2 in erythrocytes at […] by LDH reporter assay; type: functional, organism-based
Leishmania donovani = assay: Antileishmanial activity against Leishmania donovani after 72 hrs by alamar blue assay; type: functional, organism-based
Vero [4] = assay: Cytotoxicity against african green monkey Vero cells at 4.76 ug/mL by neutral red assay; type: cell-based; conditions: chlorocebus sabaeus
Staphylococcus aureus [5] = assay: Antibacterial activity against Staphylococcus aureus; type: functional, organism-based
Staphylococcus aureus [6] = assay: Antibacterial activity against methicillin-resistant Staphylococcus aureus; type: functional, organism-based
Cryptococcus neoformans = assay: Antifungal activity against Cryptococcus neoformans; type: functional, organism-based
[7] = test system: Mycobacterium intracellulare; assay: Antibacterial activity against Mycobacterium intracellular by alamar blue assay; type: functional, organism-based
[8] = molecular target: T1, Acetylcholinesterase (Bos taurus) (UniProt P23795); assay: Inhibition of bovine AChE
T1 sequence (whole entry): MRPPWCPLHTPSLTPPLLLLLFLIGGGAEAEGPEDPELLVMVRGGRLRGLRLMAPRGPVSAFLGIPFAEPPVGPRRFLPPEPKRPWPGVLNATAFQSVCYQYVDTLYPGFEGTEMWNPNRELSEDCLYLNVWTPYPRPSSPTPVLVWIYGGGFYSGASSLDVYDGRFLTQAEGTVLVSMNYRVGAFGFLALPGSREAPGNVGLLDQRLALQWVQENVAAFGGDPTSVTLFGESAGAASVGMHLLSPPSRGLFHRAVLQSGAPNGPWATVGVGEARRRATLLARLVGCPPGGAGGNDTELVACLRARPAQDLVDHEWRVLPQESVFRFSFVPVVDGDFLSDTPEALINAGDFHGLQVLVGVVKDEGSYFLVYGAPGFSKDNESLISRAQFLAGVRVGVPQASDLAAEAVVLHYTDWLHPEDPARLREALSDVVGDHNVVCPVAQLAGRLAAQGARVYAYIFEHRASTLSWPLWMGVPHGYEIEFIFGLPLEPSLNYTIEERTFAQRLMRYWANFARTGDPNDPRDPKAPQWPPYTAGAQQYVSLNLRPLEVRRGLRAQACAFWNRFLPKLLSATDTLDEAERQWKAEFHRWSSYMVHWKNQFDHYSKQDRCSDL

[9] = molecular target: Beta-secretase 1 (Homo sapiens) (UniProt P56817); assay: Inhibition of human recombinant BACE1 by FRET-based assay
Chain of Beta-secretase 1 (Homo sapiens) (P56817 whole entry): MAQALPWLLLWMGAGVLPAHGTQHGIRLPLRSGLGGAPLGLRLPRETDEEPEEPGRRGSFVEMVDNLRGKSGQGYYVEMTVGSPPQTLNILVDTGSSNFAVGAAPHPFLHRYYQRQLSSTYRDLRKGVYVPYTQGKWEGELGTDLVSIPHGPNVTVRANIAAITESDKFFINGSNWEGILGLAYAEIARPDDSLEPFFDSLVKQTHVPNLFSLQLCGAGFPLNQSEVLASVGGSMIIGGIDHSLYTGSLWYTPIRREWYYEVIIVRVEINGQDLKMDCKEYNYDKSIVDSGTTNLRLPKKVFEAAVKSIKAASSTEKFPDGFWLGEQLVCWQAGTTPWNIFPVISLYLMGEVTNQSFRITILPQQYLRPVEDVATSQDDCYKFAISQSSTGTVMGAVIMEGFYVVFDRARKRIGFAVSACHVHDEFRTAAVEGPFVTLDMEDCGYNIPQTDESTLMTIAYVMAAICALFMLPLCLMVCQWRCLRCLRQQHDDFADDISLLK

[10] = Toxicity against medaka eggs assessed as eggs failing to hatch up to 10.6 uM after 11 days relative to control; set-up: species or system Egg; conditions: oryzias latipes, 264 h
[11] = test system: Voltage-gated calcium channel; assay: Blocking of calcium channel in human SH-SY5Y cells assessed as inhibition of KCL depolarization-induced cytosolic calcium increase at 1 uM; type: cell-based
[12] = molecular target: Glycogen synthase kinase-3 beta (Homo sapiens) (UniProt P49841); assay: Inhibition of human recombinant GSK3-beta assessed as incorporation of [33P]gammaATP into G2S peptide at 25 uM
Chain of Glycogen synthase kinase-3 beta (Homo sapiens) (P49841 whole entry, looked up): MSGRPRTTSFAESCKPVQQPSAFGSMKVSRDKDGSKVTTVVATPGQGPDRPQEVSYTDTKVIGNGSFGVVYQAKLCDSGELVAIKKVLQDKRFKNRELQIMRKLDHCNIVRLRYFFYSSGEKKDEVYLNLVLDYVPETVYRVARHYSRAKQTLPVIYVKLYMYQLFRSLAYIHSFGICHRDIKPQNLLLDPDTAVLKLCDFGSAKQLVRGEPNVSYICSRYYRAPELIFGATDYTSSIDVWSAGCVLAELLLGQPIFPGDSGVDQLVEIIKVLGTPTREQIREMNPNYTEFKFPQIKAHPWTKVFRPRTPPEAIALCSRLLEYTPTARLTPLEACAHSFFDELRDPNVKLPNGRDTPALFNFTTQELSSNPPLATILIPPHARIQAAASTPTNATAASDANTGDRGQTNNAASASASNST

[13] = molecular target: Glycogen synthase kinase-3 beta (Homo sapiens) (UniProt P49841); assay: Inhibition of GSK3-beta in human SH-SY5Y cells assessed as inhibition of tau phosphorylation at Ser396 at 5 uM after 24 hrs by ELISA sandwich method; type: cell-based
SH-SY5Y = assay: Cytotoxicity against human SH-SY5Y cells at 5 uM; type: cell-based
[14] = Toxicity against medaka eggs assessed as eggs failing to hatch after 11 days; set-up: species or system Egg; conditions: oryzias latipes, 264 h
[15] = Toxicity against medaka fry after 96 hrs; type: organism-based; conditions: oryzias latipes, in vivo; read-out: LD50
[16] = Selectivity ratio of LD50 for medaka fry to ED50 for medaka eggs; conditions: oryzias latipes
[17] = test system: Mycobacterium tuberculosis; assay: Antituberculosis activity against Mycobacterium tuberculosis H37Rv after 24 hrs by alamar blue assay; type: functional
Plasmodium falciparum [18] = assay: Antimalarial activity after 72 hrs against chloroquine-resistant Plasmodium falciparum W2 in erythrocytes by LDH reporter assay; type: functional, organism-based; conditions: W2, 72 h
Vero [19] = assay: Cytotoxicity against african green monkey Vero cells by neutral red assay; type: cell-based; conditions: chlorocebus sabaeus
[20] = test system: Human immunodeficiency virus 1; assay: Antiviral activity against HIV1 3B assessed as reverse transcriptase activity by enzyme immunoassay; type: functional, organism-based; conditions: Human immunodeficiency virus 1, 3B

## C1=C(c2nccc3c2[nH]c2ccccc23)[C@@H]2CCN3CCCC/C=C\CC[C@]14O[C@@]15/C=C\CCCCN1[C@@H]4[C@]2(C3)C5 [12,34-OXAMANZAMINE A]
[1]
  Activity: inactive
Plasmodium falciparum [2]
  IC50: 4.76 µg/mL (≈ 8.71 µM)
Plasmodium falciparum [3]
  Activity: inactive
Leishmania donovani
  IC50: 14 µg/mL (≈ 25.6 µM)
  IC90: 40 µg/mL (≈ 73.2 µM)
Vero [4]
  Activity: Non-toxic
Staphylococcus aureus [5]
  Activity: inactive
Staphylococcus aureus [6]
  Activity: inactive
Cryptococcus neoformans
  Activity: inactive
[7]
  Activity: inactive
[8]
  Activity: inactive
[9]
  Activity: inactive

## CCN(CC)CCCC(C)Nc1ccnc2cc(Cl)ccc12 (configuration not stated) [CHLOROQUINE]
[10]
  Activity: Not Active

## O[C@]12C=C(c3nccc4c3[nH]c3ccccc34)[C@@H]3CCN(CCCC/C=C\CC1)C[C@@]31C[C@@H]3/C=C\CCCCN3[C@H]12 [MANZAMINE A]
[11]
  inhibition (INH): 20%
[12]
  inhibition: 73.2%
[13]
  Activity: Active
SH-SY5Y
  Activity: Non-toxic
[14]
  ED50: 0.17 µM
[15]
  LC50 at 96 h: 74 nM
[16]
  selectivity ratio: 2.3
[17]
  MIC: 1.5 µg/mL (≈ 2.73 µM)
Plasmodium falciparum [2]
  IC50: 0.0045 µg/mL (≈ 0.0082 µM)
Plasmodium falciparum [18]
  IC50: 8 ng/mL (≈ 0.0146 µM)
Leishmania donovani
  IC50: 0.9 µg/mL (≈ 1.64 µM)
  IC90: 1.8 µg/mL (≈ 3.28 µM)
Vero [19]
  IC50: 1.2 µg/mL (≈ 2.19 µM)
Staphylococcus aureus [5]
  IC50: 0.5 µg/mL (≈ 0.911 µM)
Staphylococcus aureus [6]
  IC50: 0.7 µg/mL (≈ 1.28 µM)
Cryptococcus neoformans
  IC50: 3 µg/mL (≈ 5.47 µM)
[7]
  IC50: 0.35 µg/mL (≈ 0.638 µM)
[20]
  IC50: 4.2 µg/mL (≈ 7.65 µM)
[8]
  Activity: inactive
[9]
  Activity: inactive

## O[C@@H]1CCCN2CC[C@@H]1O[C@@]13CC[C@@H](OC[C@]45CN6CCCC/C=C\CC[C@](O)(C=C(c7nccc8c7[nH]c7ccccc78)[C@@H]4CC6)[C@H]25)[C@@H](O)CCN1[C@@H]1[C@]2(CN4CCCC/C=C\CC[C@]1(O)C=C(c1nccc5c1[nH]c1ccccc15)[C@@H]2CC4)C3 [NEO-KAULUAMINE]
[12]
  inhibition: 82%
[14]
  ED50: 2.45 µM
[15]
  LC50 at 96 h: 820 nM
[16]
  selectivity ratio: 3
